In the NIST ThermoML archive (doi:10.1016/j.fluid.2008.03.004):
± gives the expanded uncertainty stated by the source.

Experiment: xn = mol fraction of the nth substance listed
Conditions: 101 kPa, Liquid; for speed of sound: Sing-around technique in a fixed-path interferometer

## CCOC(C)(C)C [2-ethoxy-2-methylpropane] + Cc1cccc(C)c1
288.15 K, x1 = 0.05
  speed of sound: 1345.6 ± 2.2 m/s
  mass density: 862.187 ± 0.4 kg/m3
288.15 K, x1 = 0.099
  speed of sound: 1332.2 ± 2.2 m/s
  mass density: 856.037 ± 0.41 kg/m3
288.15 K, x1 = 0.2
  speed of sound: 1303.2 ± 2.2 m/s
  mass density: 843.698 ± 0.42 kg/m3
288.15 K, x1 = 0.3
  speed of sound: 1274.6 ± 2.2 m/s
  mass density: 831.159 ± 0.44 kg/m3
288.15 K, x1 = 0.4
  speed of sound: 1245.5 ± 2.2 m/s
  mass density: 818.865 ± 0.46 kg/m3
288.15 K, x1 = 0.497
  speed of sound: 1217.2 ± 2.2 m/s
  mass density: 806.713 ± 0.48 kg/m3
288.15 K, x1 = 0.598
  speed of sound: 1188.6 ± 2.2 m/s
  mass density: 794.326 ± 0.49 kg/m3
288.15 K, x1 = 0.698
  speed of sound: 1161.7 ± 2.2 m/s
  mass density: 782.295 ± 0.51 kg/m3
288.15 K, x1 = 0.8
  speed of sound: 1133.6 ± 2.2 m/s
  mass density: 770.134 ± 0.53 kg/m3
288.15 K, x1 = 0.898
  speed of sound: 1106.8 ± 2.2 m/s
  mass density: 757.936 ± 0.55 kg/m3
288.15 K, x1 = 0.95
  speed of sound: 1092.8 ± 2.2 m/s
  mass density: 751.668 ± 0.56 kg/m3
288.15 K, x1 = 1
  speed of sound: 1076.4 ± 2.2 m/s
  mass density: 744.955 ± 0.55 kg/m3
290.65 K, x1 = 0.05
  speed of sound: 1334.7 ± 2.2 m/s
  mass density: 860.034 ± 0.4 kg/m3
290.65 K, x1 = 0.099
  speed of sound: 1321.5 ± 2.2 m/s
  mass density: 853.866 ± 0.41 kg/m3
290.65 K, x1 = 0.2
  speed of sound: 1292.6 ± 2.2 m/s
  mass density: 841.488 ± 0.43 kg/m3
290.65 K, x1 = 0.3
  speed of sound: 1263.8 ± 2.2 m/s
  mass density: 828.907 ± 0.45 kg/m3
290.65 K, x1 = 0.4
  speed of sound: 1234.8 ± 2.2 m/s
  mass density: 816.576 ± 0.46 kg/m3
290.65 K, x1 = 0.497
  speed of sound: 1206.4 ± 2.2 m/s
  mass density: 804.386 ± 0.48 kg/m3
290.65 K, x1 = 0.598
  speed of sound: 1177.8 ± 2.2 m/s
  mass density: 791.955 ± 0.5 kg/m3
290.65 K, x1 = 0.698
  speed of sound: 1150.8 ± 2.2 m/s
  mass density: 779.883 ± 0.51 kg/m3
290.65 K, x1 = 0.8
  speed of sound: 1122.5 ± 2.2 m/s
  mass density: 767.68 ± 0.53 kg/m3
290.65 K, x1 = 0.898
  speed of sound: 1096 ± 2.2 m/s
  mass density: 755.44 ± 0.55 kg/m3
290.65 K, x1 = 0.95
  speed of sound: 1081.9 ± 2.2 m/s
  mass density: 749.148 ± 0.56 kg/m3
290.65 K, x1 = 1
  speed of sound: 1065.1 ± 2.2 m/s
  mass density: 742.482 ± 0.56 kg/m3
293.15 K, x1 = 0.05
  speed of sound: 1324.1 ± 2.2 m/s
  mass density: 857.873 ± 0.4 kg/m3
293.15 K, x1 = 0.099
  speed of sound: 1310.9 ± 2.2 m/s
  mass density: 851.684 ± 0.41 kg/m3
293.15 K, x1 = 0.2
  speed of sound: 1282 ± 2.2 m/s
  mass density: 839.267 ± 0.43 kg/m3
293.15 K, x1 = 0.3
  speed of sound: 1253.1 ± 2.2 m/s
  mass density: 826.644 ± 0.45 kg/m3
293.15 K, x1 = 0.4
  speed of sound: 1224.1 ± 2.2 m/s
  mass density: 814.272 ± 0.47 kg/m3
293.15 K, x1 = 0.497
  speed of sound: 1195.6 ± 2.2 m/s
  mass density: 802.042 ± 0.48 kg/m3
293.15 K, x1 = 0.598
  speed of sound: 1167 ± 2.2 m/s
  mass density: 789.571 ± 0.5 kg/m3
293.15 K, x1 = 0.698
  speed of sound: 1140 ± 2.2 m/s
  mass density: 777.456 ± 0.52 kg/m3
293.15 K, x1 = 0.8
  speed of sound: 1111.5 ± 2.2 m/s
  mass density: 765.209 ± 0.54 kg/m3
293.15 K, x1 = 0.898
  speed of sound: 1085.2 ± 2.2 m/s
  mass density: 752.927 ± 0.55 kg/m3
293.15 K, x1 = 0.95
  speed of sound: 1070.8 ± 2.2 m/s
  mass density: 746.612 ± 0.56 kg/m3
293.15 K, x1 = 1
  speed of sound: 1053.7 ± 2.2 m/s
  mass density: 739.947 ± 0.56 kg/m3
295.65 K, x1 = 0.05
  speed of sound: 1313.4 ± 2.2 m/s
  mass density: 855.708 ± 0.41 kg/m3
295.65 K, x1 = 0.099
  speed of sound: 1300.3 ± 2.2 m/s
  mass density: 849.502 ± 0.42 kg/m3
295.65 K, x1 = 0.2
  speed of sound: 1271.3 ± 2.2 m/s
  mass density: 837.044 ± 0.43 kg/m3
295.65 K, x1 = 0.3
  speed of sound: 1242.3 ± 2.2 m/s
  mass density: 824.379 ± 0.45 kg/m3
295.65 K, x1 = 0.4
  speed of sound: 1213.3 ± 2.2 m/s
  mass density: 811.966 ± 0.47 kg/m3
295.65 K, x1 = 0.497
  speed of sound: 1184.7 ± 2.2 m/s
  mass density: 799.693 ± 0.49 kg/m3
295.65 K, x1 = 0.598
  speed of sound: 1156 ± 2.2 m/s
  mass density: 787.18 ± 0.5 kg/m3
295.65 K, x1 = 0.698
  speed of sound: 1129.1 ± 2.2 m/s
  mass density: 775.026 ± 0.52 kg/m3
295.65 K, x1 = 0.8
  speed of sound: 1100.5 ± 2.2 m/s
  mass density: 762.735 ± 0.54 kg/m3
295.65 K, x1 = 0.898
  speed of sound: 1074.1 ± 2.2 m/s
  mass density: 750.406 ± 0.56 kg/m3
295.65 K, x1 = 0.95
  speed of sound: 1059.8 ± 2.2 m/s
  mass density: 744.068 ± 0.57 kg/m3
295.65 K, x1 = 1
  speed of sound: 1042.2 ± 2.2 m/s
  mass density: 737.374 ± 0.56 kg/m3
298.15 K, x1 = 0.05
  speed of sound: 1302.9 ± 2.2 m/s
  mass density: 853.541 ± 0.41 kg/m3
298.15 K, x1 = 0.099
  speed of sound: 1289.8 ± 2.2 m/s
  mass density: 847.315 ± 0.42 kg/m3
298.15 K, x1 = 0.2
  speed of sound: 1260.8 ± 2.2 m/s
  mass density: 834.815 ± 0.44 kg/m3
298.15 K, x1 = 0.3
  speed of sound: 1231.6 ± 2.2 m/s
  mass density: 822.108 ± 0.46 kg/m3
298.15 K, x1 = 0.4
  speed of sound: 1202.6 ± 2.2 m/s
  mass density: 809.656 ± 0.47 kg/m3
298.15 K, x1 = 0.497
  speed of sound: 1173.8 ± 2.2 m/s
  mass density: 797.343 ± 0.49 kg/m3
298.15 K, x1 = 0.598
  speed of sound: 1145.1 ± 2.2 m/s
  mass density: 784.785 ± 0.51 kg/m3
298.15 K, x1 = 0.698
  speed of sound: 1118.2 ± 2.2 m/s
  mass density: 772.587 ± 0.53 kg/m3
298.15 K, x1 = 0.8
  speed of sound: 1089.5 ± 2.2 m/s
  mass density: 760.251 ± 0.54 kg/m3
298.15 K, x1 = 0.898
  speed of sound: 1063 ± 2.2 m/s
  mass density: 747.878 ± 0.56 kg/m3
298.15 K, x1 = 0.95
  speed of sound: 1048.7 ± 2.2 m/s
  mass density: 741.515 ± 0.57 kg/m3
298.15 K, x1 = 1
  speed of sound: 1031 ± 2.2 m/s
  mass density: 734.806 ± 0.57 kg/m3
300.65 K, x1 = 0.05
  speed of sound: 1292.5 ± 2.2 m/s
  mass density: 851.372 ± 0.41 kg/m3
300.65 K, x1 = 0.099
  speed of sound: 1279.3 ± 2.2 m/s
  mass density: 845.128 ± 0.42 kg/m3
300.65 K, x1 = 0.2
  speed of sound: 1250.2 ± 2.2 m/s
  mass density: 832.584 ± 0.44 kg/m3
300.65 K, x1 = 0.3
  speed of sound: 1221 ± 2.2 m/s
  mass density: 819.837 ± 0.46 kg/m3
300.65 K, x1 = 0.4
  speed of sound: 1191.8 ± 2.2 m/s
  mass density: 807.341 ± 0.48 kg/m3
300.65 K, x1 = 0.497
  speed of sound: 1163.1 ± 2.2 m/s
  mass density: 794.987 ± 0.49 kg/m3
300.65 K, x1 = 0.598
  speed of sound: 1134.2 ± 2.2 m/s
  mass density: 782.385 ± 0.51 kg/m3
300.65 K, x1 = 0.698
  speed of sound: 1107.3 ± 2.2 m/s
  mass density: 770.145 ± 0.53 kg/m3
300.65 K, x1 = 0.8
  speed of sound: 1078.4 ± 2.2 m/s
  mass density: 757.762 ± 0.55 kg/m3
300.65 K, x1 = 0.898
  speed of sound: 1051.9 ± 2.2 m/s
  mass density: 745.343 ± 0.57 kg/m3
300.65 K, x1 = 0.95
  speed of sound: 1037.6 ± 2.2 m/s
  mass density: 738.954 ± 0.58 kg/m3
300.65 K, x1 = 1
  speed of sound: 1019.8 ± 2.2 m/s
  mass density: 732.225 ± 0.57 kg/m3
303.15 K, x1 = 0.05
  speed of sound: 1282.1 ± 2.2 m/s
  mass density: 849.201 ± 0.42 kg/m3
303.15 K, x1 = 0.099
  speed of sound: 1268.9 ± 2.2 m/s
  mass density: 842.934 ± 0.42 kg/m3
303.15 K, x1 = 0.2
  speed of sound: 1239.8 ± 2.2 m/s
  mass density: 830.351 ± 0.44 kg/m3
303.15 K, x1 = 0.3
  speed of sound: 1210.3 ± 2.2 m/s
  mass density: 817.559 ± 0.46 kg/m3
303.15 K, x1 = 0.4
  speed of sound: 1181.2 ± 2.2 m/s
  mass density: 805.022 ± 0.48 kg/m3
303.15 K, x1 = 0.497
  speed of sound: 1152.3 ± 2.2 m/s
  mass density: 792.628 ± 0.5 kg/m3
303.15 K, x1 = 0.598
  speed of sound: 1123.3 ± 2.2 m/s
  mass density: 779.979 ± 0.52 kg/m3
303.15 K, x1 = 0.698
  speed of sound: 1096.3 ± 2.2 m/s
  mass density: 767.695 ± 0.53 kg/m3
303.15 K, x1 = 0.8
  speed of sound: 1067.5 ± 2.2 m/s
  mass density: 755.266 ± 0.55 kg/m3
303.15 K, x1 = 0.898
  speed of sound: 1040.8 ± 2.2 m/s
  mass density: 742.8 ± 0.57 kg/m3
303.15 K, x1 = 0.95
  speed of sound: 1026.5 ± 2.2 m/s
  mass density: 736.382 ± 0.58 kg/m3
303.15 K, x1 = 1
  speed of sound: 1008.6 ± 2.2 m/s
  mass density: 729.647 ± 0.57 kg/m3
305.65 K, x1 = 0.05
  speed of sound: 1271.7 ± 2.2 m/s
305.65 K, x1 = 0.099
  speed of sound: 1258.6 ± 2.2 m/s
305.65 K, x1 = 0.2
  speed of sound: 1229.3 ± 2.2 m/s
305.65 K, x1 = 0.3
  speed of sound: 1199.8 ± 2.2 m/s
305.65 K, x1 = 0.4
  speed of sound: 1170.5 ± 2.2 m/s
305.65 K, x1 = 0.497
  speed of sound: 1141.6 ± 2.2 m/s
305.65 K, x1 = 0.598
  speed of sound: 1112.5 ± 2.2 m/s
305.65 K, x1 = 0.698
  speed of sound: 1085.4 ± 2.2 m/s
305.65 K, x1 = 0.8
  speed of sound: 1056.5 ± 2.2 m/s
305.65 K, x1 = 0.898
  speed of sound: 1029.8 ± 2.2 m/s
305.65 K, x1 = 0.95
  speed of sound: 1015.3 ± 2.2 m/s
305.65 K, x1 = 1
  speed of sound: 997.52 ± 2.2 m/s
